A short description of data set [1]: Pharmacokinetic profiles in rats after intravenous and oral administration. Type of data set: in vivo. Particulars: for F: oral dose generally 5 or 10 mg/kg; for AUC(0-t) / half-life / Vd: rat, plasma; for Vd: read-out: Vss. The protocol: The compounds disclosed herein are assessed in pharmacokinetic studies in mice, rats, dogs or monkeys. The compounds are administered as a water solution, 2% HPMC+1% TWEEN® 80 in water solution, 5% DMSO+5% solutol in saline, 4% MC suspension or capsule. For the intravenous administration, the animals are generally given at 1 or 2 mg/kg dose. For the oral (p.o.) dosing, mice and rats are generally given 5 or 10 mg/kg dose, and dogs and monkeys are generally given 10 mg/kg dose. The blood samples (0.3 mL) are drawn at 0.25, 0.5, 1.0, 2.0, 3.0, 4.0, 6.0, 8.0, 12 and 24 h time points or 0.083, 0.25, 0.5, 1.0, 2.0, 4.0, 6.0, 8.0 and 24 h time points and centrifuged at 3,000 or 4000 rpm for 2 to 10 min. The plasma solutions are collected, stored at −20° C. or −70° C. until analyzed by LC/MS/MS as described above.

In data set [2] the target is T1, PI3K (p110δ/p85α) (h) (Homo sapiens, UniProt O00329).
T1 construct: purchased Millipore UK Ltd (assay service)
In words: PI3K p110δ/p85α (h) non-radioactive HTRF assay. The data set is classed as biochemical. The protocol:
(§1) PI3K (p110δ/p85α) (h) is incubated in assay buffer containing 10 μM phosphatidylinositol-4,5-bisphosphate and MgATP (concentration as required). The reaction is initiated by the addition of the MgATP mix. After incubation for 30 minutes at room temperature, the reaction is stopped by the addition of stop solution containing EDTA and biotinylated phosphatidylinositol-3,4,5-trisphosphate. Finally, detection buffer is added, which contains europium-labelled anti-GST monoclonal antibody, GST-tagged GRP1 PH domain and streptavidin-allophycocyanin. The plate is then read in timeresolved fluorescence mode and the homogenous time-resolved fluorescence (HTRF) signal is determined according to the formula HTRF=10000×(Em665 nm/Em620 nm).
(§2) The kinase assays described herein were performed at Millipore UK Ltd, Dundee Technology Park, Dundee DD2 1SW, UK.

Data set [3] has as its target T2, PI3K p110β/p85α (h) (Homo sapiens, UniProt P42338).
T2 construct: purchased Millipore UK Ltd (assay service)
In words: PI3K p110β/p85α (h) non-radioactive HTRF assay. Type of data set: biochemical. The procedure: as §1, with “(p110β/p85α)” for “(p110δ/p85α)”
as §2

Data set [4] is described as follows: Compound stability in rat liver microsomes. Type of data set: in vitro ADME. The procedure:
(§3) Human or rat liver microsomes incubations were conducted in duplicate in polypropylene tubes. The typical incubation mixtures consisted of human or rat liver microsomes (0.5 mg protein/mL), compounds of interest (5 μM) and NADPH (1.0 mM) in a total volume of 200 μL potassium phosphate buffer (PBS, 100 mM, pH=7.4). Compounds were dissolved in DMSO and diluted with PBS such that the final concentration of DMSO was 0.05%. The enzymatic reactions were commenced with the addition of […] after a 3-min preincubation and incubated in a water bath open to the air at 37° C. Reactions were terminated at various time points (0, 5, 10, 15, 30, 60 min) by adding equal volume of ice-cold acetonitrile. The samples were stored at −80° C. until LC/MS/MS assays.
(§4) The concentrations of compounds in the incubation mixtures of human or rat liver microsomes were determined by a LC/MS/MS method. The ranges of the linearity in the concentration range were determined for each tested compounds.
(§5) A parallel incubation was performed using denatured microsomes as the negative control, and reactions were terminated at various time points (0, 15, 60 min) after incubation at 37° C.
(§6) Dextromethorphan (70 μM) was selected as the positive control, and reactions were terminated at various time points (0, 5, 10, 15, 30, 60 min) after incubation at 37° C. Both positive and negative control samples were included in each assay to ensure the integrity of the microsomal incubation system.
(§7) The concentrations of compounds in human or rat liver microsome incubations were plotted as a percentage of the relevant zero time point control for each reaction. The in vivo CLint were extrapolated (ref: Naritomi Y, Terashita S, Kimura S, Suzuki A, Kagayama A, Sugiyama Y. Prediction of human hepatic clearance from in vivo animal experiments and in vitro metabolic studies with liver microsomes from animals and humans. Drug Metabolism and Disposition 2001, 29: 1316-1324).

Data set [5] can be described thus: Compound stability in human liver microsomes. Type of data set: in vitro ADME. Particulars: pH 7.4; for half-life at 5 μM: human liver microsomes 0.5 mg protein/mL, compound 5 μM, NADPH 1.0 mM, 37° C., read-out: Human T1/2; for CLint scaled at 5 μM: human liver microsomes, in vivo CLint extrapolated. The procedure: as §3, §4, §5, §6, §7

The values that follow come from US9926324B2, “Heteroaromatic compounds as PI3 kinase modulators and methods of use” (Calitor Sciences, LLC, priority 2012, dated 2018).

Like-named read-outs stand apart in the source and are kept apart here.

T2 sequence (P42338 whole entry): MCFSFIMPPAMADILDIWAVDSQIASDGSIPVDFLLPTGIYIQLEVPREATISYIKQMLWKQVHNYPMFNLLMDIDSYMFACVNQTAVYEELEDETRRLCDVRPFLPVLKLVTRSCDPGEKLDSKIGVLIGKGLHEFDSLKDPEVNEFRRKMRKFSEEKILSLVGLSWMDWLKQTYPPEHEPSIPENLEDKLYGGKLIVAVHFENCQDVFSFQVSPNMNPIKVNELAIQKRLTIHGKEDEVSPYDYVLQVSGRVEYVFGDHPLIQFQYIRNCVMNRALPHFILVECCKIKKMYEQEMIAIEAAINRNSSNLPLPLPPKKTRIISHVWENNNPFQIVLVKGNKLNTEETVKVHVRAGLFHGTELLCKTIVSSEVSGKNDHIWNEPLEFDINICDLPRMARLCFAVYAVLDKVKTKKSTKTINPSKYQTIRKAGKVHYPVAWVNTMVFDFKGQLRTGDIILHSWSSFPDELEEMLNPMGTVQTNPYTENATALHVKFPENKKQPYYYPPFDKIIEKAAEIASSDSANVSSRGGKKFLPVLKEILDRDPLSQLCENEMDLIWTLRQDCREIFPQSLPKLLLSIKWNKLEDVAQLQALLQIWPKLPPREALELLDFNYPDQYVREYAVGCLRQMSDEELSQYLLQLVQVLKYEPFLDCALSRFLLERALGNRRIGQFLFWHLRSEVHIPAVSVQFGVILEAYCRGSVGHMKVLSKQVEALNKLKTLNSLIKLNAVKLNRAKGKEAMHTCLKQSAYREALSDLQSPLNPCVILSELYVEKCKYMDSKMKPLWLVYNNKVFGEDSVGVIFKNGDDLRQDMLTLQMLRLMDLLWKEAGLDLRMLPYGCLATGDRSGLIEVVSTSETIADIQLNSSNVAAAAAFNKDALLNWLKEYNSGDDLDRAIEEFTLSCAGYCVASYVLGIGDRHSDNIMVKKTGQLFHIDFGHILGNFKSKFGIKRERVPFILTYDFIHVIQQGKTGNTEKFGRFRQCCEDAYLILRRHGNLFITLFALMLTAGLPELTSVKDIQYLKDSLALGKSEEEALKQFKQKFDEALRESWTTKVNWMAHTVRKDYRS
T2 sequence (P27986 whole entry partner): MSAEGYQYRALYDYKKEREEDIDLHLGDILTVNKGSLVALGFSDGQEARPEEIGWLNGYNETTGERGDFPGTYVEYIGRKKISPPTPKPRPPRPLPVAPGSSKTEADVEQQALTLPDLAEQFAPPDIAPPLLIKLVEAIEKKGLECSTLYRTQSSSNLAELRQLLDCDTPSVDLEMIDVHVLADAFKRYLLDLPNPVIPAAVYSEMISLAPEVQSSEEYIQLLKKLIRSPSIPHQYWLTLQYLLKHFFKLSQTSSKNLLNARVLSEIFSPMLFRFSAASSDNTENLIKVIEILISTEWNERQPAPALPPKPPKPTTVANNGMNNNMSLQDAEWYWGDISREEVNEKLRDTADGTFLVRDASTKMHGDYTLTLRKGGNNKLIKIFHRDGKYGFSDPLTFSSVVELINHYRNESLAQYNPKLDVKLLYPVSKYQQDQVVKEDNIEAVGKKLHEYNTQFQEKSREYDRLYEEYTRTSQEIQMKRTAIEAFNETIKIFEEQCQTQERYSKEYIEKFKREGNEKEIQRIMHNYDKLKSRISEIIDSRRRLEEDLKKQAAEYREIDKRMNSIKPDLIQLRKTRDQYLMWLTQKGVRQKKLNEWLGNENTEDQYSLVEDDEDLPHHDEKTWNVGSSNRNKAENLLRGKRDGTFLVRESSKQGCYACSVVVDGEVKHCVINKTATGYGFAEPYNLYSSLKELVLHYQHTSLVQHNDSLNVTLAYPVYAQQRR
T1 sequence (O00329 whole entry): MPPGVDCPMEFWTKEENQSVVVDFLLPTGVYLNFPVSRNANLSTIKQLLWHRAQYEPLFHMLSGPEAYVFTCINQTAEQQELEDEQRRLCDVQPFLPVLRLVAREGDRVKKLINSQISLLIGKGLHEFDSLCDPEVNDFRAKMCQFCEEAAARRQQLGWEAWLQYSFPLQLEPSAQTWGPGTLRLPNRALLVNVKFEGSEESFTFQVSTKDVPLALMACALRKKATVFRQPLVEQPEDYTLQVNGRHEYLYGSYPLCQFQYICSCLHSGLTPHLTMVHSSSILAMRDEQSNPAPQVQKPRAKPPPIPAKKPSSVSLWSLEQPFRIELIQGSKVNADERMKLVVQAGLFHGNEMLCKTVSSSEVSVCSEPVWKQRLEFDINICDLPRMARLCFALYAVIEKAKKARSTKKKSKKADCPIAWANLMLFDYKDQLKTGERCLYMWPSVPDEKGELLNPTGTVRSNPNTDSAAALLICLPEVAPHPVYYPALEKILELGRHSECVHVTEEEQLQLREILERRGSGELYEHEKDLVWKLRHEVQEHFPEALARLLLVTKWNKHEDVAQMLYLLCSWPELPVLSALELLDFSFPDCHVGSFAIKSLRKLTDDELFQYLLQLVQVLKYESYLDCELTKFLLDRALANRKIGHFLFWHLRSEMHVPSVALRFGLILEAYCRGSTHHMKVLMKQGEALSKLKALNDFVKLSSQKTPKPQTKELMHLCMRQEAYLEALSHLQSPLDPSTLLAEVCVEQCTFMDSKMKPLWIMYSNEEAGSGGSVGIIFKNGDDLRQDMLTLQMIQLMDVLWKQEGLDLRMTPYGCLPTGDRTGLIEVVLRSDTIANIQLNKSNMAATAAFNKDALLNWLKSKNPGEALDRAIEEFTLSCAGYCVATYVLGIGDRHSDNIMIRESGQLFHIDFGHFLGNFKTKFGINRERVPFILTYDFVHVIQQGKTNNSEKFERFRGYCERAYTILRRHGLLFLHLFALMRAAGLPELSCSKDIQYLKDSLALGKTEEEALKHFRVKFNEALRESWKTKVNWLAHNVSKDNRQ
T1 sequence (P27986 whole entry partner): as the sequence (P27986 whole entry partner) above

With `CC#Cc1cnc2ccc(-c3cnc(OC)c(NS(=O)(=O)c4ccc(F)cc4F)c3)cn12` [Ex. 18, 2,4-difluoro-N-(2-methoxy-5-(3-(prop-1-yn-1-yl)imidazo[1,2-a]pyridin-6-yl)pyridin-3-yl)benzenesulfonamide], the F in data set [1] (iv dose 1 mg/kg) came out at 97.16%. In data set [1] (iv dosing 1 mg/kg), the Cl/F was 1.67 mL/min/kg, the exposure AUC(0-t) is 10300 ng·h/mL, the half-life was 2.33 h and the Vd stood at 0.35 L/kg. The IC50 in data set [2] was 2 nM. Also, the IC50 in data set [3] came out at 28 nM. Also, the half-life at 5 μM in data set [4] (pH 7.4, rat liver microsomes 0.5 mg protein/mL, compound 5 μM, NADPH 1.0 mM, 37° C., read-out: Rat T1/2) amounted to 0.731 h. In data set [4] (pH 7.4, rat liver microsomes, in vivo CLint extrapolated), the CLint scaled at 5 μM was 56.6 mL/min/kg. For the same molecule, in data set [5], the half-life at 5 μM turned out to be 3.54 h and the CLint scaled at 5 μM was 8.18 mL/min/kg.
Molecule `COc1ncc(-c2ccc3ncc(C#N)n3c2)cc1NS(=O)(=O)c1ccc(F)cc1F` [Ex. 19, N-(5-(3-cyanoimidazo[1,2-a]pyridin-6-yl)-2-methoxypyridin-3-yl)-2,4-difluorobenzenesulfonamide] showed a F in data set [1] (iv dose 2 mg/kg) of 54.66%. Moreover, in data set [1] (iv dosing 2 mg/kg), the Cl/F was found to be 3.83 mL/min/kg, the AUC(0-t) turned out to be 10100 ng·h/mL, the half-life was 2.58 h and the Vd is 0.55 L/kg. The concentration for half-maximal inhibition (IC50) in data set [2] came to 4 nM. Moreover, the IC50 in data set [3] stood at 28 nM. Further, in data set [4] (rat liver microsomes 0.5 mg protein/mL, compound 5 μM, NADPH 1.0 mM, 37° C.), the “Rat T1/2” value is “∞”. In data set [5], the half-life at 5 μM stood at 7.07 h and the CLint scaled at 5 μM is 4.1 mL/min/kg.
